Source: EP3815699A1, “NEW MEANS AND METHODS FOR THERAPY AND DIAGNOSIS OF […]” (Technische Universität München, priority 2019, dated 2021)
Entries after “also recorded” stand apart in the source; their conditions may differ. Read-outs that look alike come from different tables or passages of the source.

What was measured:
HAdV-C5 = test: Virus yield / progeny production by quantitative E2A immunofluorescence staining in 293 cells (Fig. 1B); format: cell-based
Experimental: (§1) • Figure 1: ATO efficiently reduces HAdV infectivity (cf. Example 1). H1299 cells were infected with HAdV-C5 wt at a multiplicity of 5 FFU/cell, treated with the depicted concentrations of ATO at 2 h.p.i., fixed 48 h.p.i. with 4 % PFA and double labeled with mAb B6-8 (α-E2A) and pAb L133 (α-Capsid). Primary antibodies were detected using Alexa488 (E2A, green) and Alexa568 (Capsid, red) conjugated secondary antibodies. (A) The number of E2A and Capsid expressing cells, respectively, was counted in n=40 overview pictures (not shown), normalized to untreated, infected cells, and represented in bar charts. Bar charts represent average values and standard deviations based on four independent experiments. (B) H1299 cells were infected with HAdV-C5 at a multiplicity of 20 FFU/cell, and treated with the depicted concentrations of ATO at 2 h.p.i.. Viral particles were harvested 48 h.p.i. and virus yield was determined by quantitative E2A immunofluorescence staining in 293 cells. Bar charts represent average values and standard deviations based on three independent experiments. Statistically significant differences were determined using a two-sided Welch's t-test. *: P ≤ 0.05, **: P ≤ 0.01, ***: P ≤ 0.001, ****: P ≤ 0.0001. • Figure 2: ATO induces a dose dependent reduction of HAdV infectivity with minor effects on cell viability (cf. Example 2). […] 24 or 48 h.p.i., cell viability was assessed using the Promega CellTiter-Blue Cell Viability Assay system, prior to fixation with 4 % PFA and cells were double labeled with mAb B6-8 (α-E2A) and pAb L133 (α-Capsid). Primary antibodies were detected using Alexa488 (E2A, green) and Alexa647 (Capsid, red) conjugated secondary antibodies. Fluorescence intensity was measured using a Tecan Infinite 200M plate reader using an excitation and emission wavelength of 488 and 520nm for Alexa488 and 640 and 670nm for Alexa647 respectively. Fluorescence intensity was normalized to untreated, infected cells at 48h p.i.. xy charts represent average values and standard deviations based on three independent experiments measured in triplicates. […]

[1] = test system: HAdV-C5 delta E3 virus, encoding a CMV promoter driven eGFP expression cassette; test: IncuCyte live-cell imaging, real-time kinetics of GFP expression (Fig. 2D); format: cell-based; conditions: 60h p.i., A549 cells
HAdV-C5 wt [2] = test: Tecan plate reader measurement of E2A and capsid immunofluorescence intensity in infected H1299 cells (Fig. 2A); format: cell-based
Experimental: (§2) • Figure 1: ATO efficiently reduces HAdV infectivity (cf. Example 1). H1299 cells were infected with HAdV-C5 wt at a multiplicity of 5 FFU/cell, treated with the depicted concentrations of ATO at 2 h.p.i., fixed 48 h.p.i. with 4 % PFA and double labeled with mAb B6-8 (α-E2A) and pAb L133 (α-Capsid). Primary antibodies were detected using Alexa488 (E2A, green) and Alexa568 (Capsid, red) conjugated secondary antibodies. (A) The number of E2A and Capsid expressing cells, respectively, was counted in n=40 overview pictures (not shown), normalized to untreated, infected cells, and represented in bar charts. Bar charts represent average values and standard deviations based on four independent experiments. (B) H1299 cells were infected with HAdV-C5 at a multiplicity of 20 FFU/cell, and treated with the depicted concentrations of ATO at 2 h.p.i.. Viral particles were harvested 48 h.p.i. and virus yield was determined by quantitative E2A immunofluorescence staining in 293 cells. Bar charts represent average values and standard deviations based on three independent experiments. Statistically significant differences were determined using a two-sided Welch's t-test. *: P ≤ 0.05, **: P ≤ 0.01, ***: P ≤ 0.001, ****: P ≤ 0.0001. • Figure 2: ATO induces a dose dependent reduction of HAdV infectivity with minor effects on cell viability (cf. Example 2). (A) H1299 cells were infected with HAdV-C5 wt at a multiplicity of 20 FFU/cell and treated with the depicted concentrations of ATO at 2 h.p.i.. 24 or 48 h.p.i., cell viability was assessed using the Promega CellTiter-Blue Cell Viability Assay system, prior to fixation with 4 % PFA and cells were double labeled with mAb B6-8 (α-E2A) and pAb L133 (α-Capsid). Primary antibodies were detected using Alexa488 (E2A, green) and Alexa647 (Capsid, red) conjugated secondary antibodies. Fluorescence intensity was measured using a Tecan Infinite 200M plate reader using an excitation and emission wavelength of 488 and 520nm for Alexa488 and 640 and 670nm for Alexa647 respectively. Fluorescence intensity was normalized to untreated, infected cells at 48h p.i.. xy charts represent average values and standard deviations based on three independent experiments measured in triplicates. (B) H1299 cells were infected with an HAdV-C5 delta E3 virus, encoding a CMV promoter driven eGFP expression cassette, at a multiplicity of 20FFU/cell and treated with the depicted concentrations of ATO at 2h p.i.; 24 or 48 h p.i. cell viability was assessed using the Promega CellTiter-Blue Cell Viability Assay system, and GFP fluorescence intensity was measured using a Tecan Infinite 200M plate reader using an excitation and emission wavelength of 488 and 520nm. Fluorescence intensity was normalized to untreated, infected cells at 48h p.i.; xy charts represent average values and standard deviations based on three independent experiments measured in triplicates. (C) H1299 cells were infected with an eGFP expressing HAdV-C5 based first generation adenoviral vector at a multiplicity of 20 FFU/cell and treated with the depicted concentrations of ATO at 2h p.i.; 24 or 48h p.i., cell viability was assessed using the Promega CellTiter-Blue Cell Viability Assay system, and GFP fluorescence intensity was measured using a Tecan Infinite 200M plate reader using an excitation and emission wavelength of 488 and 520nm. Fluorescence intensity was normalized to untreated, infected cells at 48h p..i.; xy charts represent average values and standard deviations based on three independent experiments measured in triplicates. (D) A549 cells were infected with an HAdV-C5 delta E3 virus, encoding a CMV promoter driven eGFP expression cassette, at a multiplicity of 20FFU/cell and treated with the depicted concentrations of ATO at 2h p.i.. GFP-fluorescence, as well as cell growth via phase contrast-imaging was assessed for 48 h with a 2h increment using an IncuCyte S3 Live-Cell Analysis System. […]

HAdV-C5 wt [3] = test: Immunofluorescence count of HAdV replication centers marked by E2A (Fig. 4B); format: cell-based; conditions: HAdV infected cells
HAdV-C5 wt [4] = test: Native agarose gel electrophoresis capsid formation assay (Fig. 3D); format: cell-based
HAdV-C5 wt [5] = test: Immunofluorescence count of E2A and capsid expressing infected cells (Fig. 1A); format: cell-based
Experimental: as §1, with “triplicates. (B) H1299 cells were infected with an HAdV-C5 delta E3 virus, encoding a CMV promoter driven eGFP expression cassette, at a multiplicity of 20FFU/cell and treated with the depicted concentrations of ATO at 2h p.i.; 24 or 48 h p.i. cell viability was assessed using the Promega CellTiter-Blue Cell Viability Assay system, and GFP fluorescence intensity was measured using a Tecan Infinite 200M plate reader using an excitation and emission wavelength of 488 and 520nm. Fluorescence intensity was normalized to untreated, infected cells at 48h p.i.; xy charts represent average values and standard deviations based on three independent experiments measured in triplicates.” for “triplicates.”

HAdV-C5 wt [6] = test: Western blot of viral protein expression (Fig. 3C); format: cell-based; conditions: 1 and 2µM ATO
PML-NBs = test: Immunofluorescence count of PML-NBs per cell in uninfected H1299 cells (Fig. 4A); format: cell-based, Human; conditions: non-infected cells
PML-NBs, sequence (P29590 1-418 limits assumed): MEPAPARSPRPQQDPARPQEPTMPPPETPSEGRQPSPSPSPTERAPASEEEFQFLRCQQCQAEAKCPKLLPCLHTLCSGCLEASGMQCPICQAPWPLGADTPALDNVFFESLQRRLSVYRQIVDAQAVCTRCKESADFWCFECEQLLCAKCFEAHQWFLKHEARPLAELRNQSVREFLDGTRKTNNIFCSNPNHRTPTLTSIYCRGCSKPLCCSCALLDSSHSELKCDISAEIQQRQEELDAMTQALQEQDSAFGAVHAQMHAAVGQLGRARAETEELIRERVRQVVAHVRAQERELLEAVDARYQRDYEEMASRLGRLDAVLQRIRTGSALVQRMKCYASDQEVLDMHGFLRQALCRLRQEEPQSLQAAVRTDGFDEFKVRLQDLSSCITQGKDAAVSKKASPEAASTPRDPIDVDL

HAdV-C5 wt [7] = test: Quantitative RT-PCR of viral E1A and Hexon mRNA (Fig. 3B); format: cell-based; conditions: 2µM ATO, 48h
[8] = test system: eGFP expressing HAdV-C5 based first generation adenoviral vector; test: GFP fluorescence of non-replicating adenoviral vector in H1299 cells (Fig. 2C); format: cell-based; conditions: for GFP expression compared to the untreated control: 8µM ATO; for IC50: read-out: IC50 (GFP expression)
Experimental: as §1, with “triplicates. (B) H1299 cells were infected with an HAdV-C5 delta E3 virus, encoding a CMV promoter driven eGFP expression cassette, at a multiplicity of 20FFU/cell and treated with the depicted concentrations of ATO at 2h p.i.; 24 or 48 h p.i. cell viability was assessed using the Promega CellTiter-Blue Cell Viability Assay system, and GFP fluorescence intensity was measured using a Tecan Infinite 200M plate reader using an excitation and emission wavelength of 488 and 520nm. Fluorescence intensity was normalized to untreated, infected cells at 48h p.i.; xy charts represent average values and standard deviations based on three independent experiments measured in triplicates.” for “triplicates.”

H1299 cells = format: cell-based, Human; conditions: lower panel
Experimental: as §1

[9] = test system: HAdV-C5 delta E3 virus, encoding a CMV promoter driven eGFP expression cassette; test: GFP fluorescence of replication competent GFP-expressing virus in H1299 cells (Fig. 2B); format: cell-based; conditions: for IC50: read-out: IC50 (HAdV infection, GFP)
Experimental: as §2, with “520nm.” for “520nm. Fluorescence intensity was normalized to untreated, infected cells at 48h p..i.; xy charts represent average values and standard deviations based on three independent experiments measured in triplicates. (D) A549 cells were infected with an HAdV-C5 delta E3 virus, encoding a CMV promoter driven eGFP expression cassette, at a multiplicity of 20FFU/cell and treated with the depicted concentrations of ATO at 2h p.i.. GFP-fluorescence, as well as cell growth via phase contrast-imaging was assessed for 48 h with a 2h increment using an IncuCyte S3 Live-Cell Analysis System.”

[10] = biological target: His/HA-SUMO-2 (stably expressed in HepaRG cells) (UniProt P61956); test: Ni-NTA purification of covalent His/HA-SUMO-2 conjugates from infected HepaRG cells, anti-E2A immunoblot, densitometry normalised to E2A levels
[11] = ATO concentration not stated at the place

Substance: arsenic trioxide [ATO]
- reduction of virus yield (HAdV-C5; 1µM ATO, H1299, 20 FFU/cell, harvested 48 h.p.i.): 80%
- virus particle synthesis / virus yield (HAdV-C5; 2µM ATO, compared to non-treated infected control cells): abolished; also recorded: completely abolishing
- reduction in virus yield (HAdV-C5; ATO concentration not given): 80%
- reduction of GFP expression / viral load over time [1]: four-fold
- reduction of capsid expression (HAdV-C5 wt [2]; 2µM ATO, 48h p.i.): 40%
- reduction of E2A protein expression (HAdV-C5 wt [2]; 4µM ATO, 24h p.i.): more than 50%
- E2A expression compared to the untreated control (HAdV-C5 wt [2]; 4µM ATO, 24h p.i., Fig. 2A): less than 50%
- capsid detection / capsid expression (HAdV-C5 wt [2]; 4µM ATO, 48h p.i.): complete loss
- E2A expression reduced to (HAdV-C5 wt [2]; 4µM ATO, 48h p.i., remaining expression): 60%
- HAdV E2A protein expression (HAdV-C5 wt [2]; 8µM ATO, 24h p.i., Fig. 2A): completely block; also recorded: completely blocking
- E2A expression (HAdV-C5 wt [2]; 8µM ATO, 48h p.i.): not detectable; also recorded: completely blocking
- reduction of E2A protein expression (HAdV-C5 wt [2]; 8µM ATO, 48h p.i.): up to 60%
- IC50 (HAdV-C5 wt [2]; 24h p.i., Fig. 2A, read-out: IC50 (E2A expression)): 1910 nM
- IC50 (HAdV-C5 wt [2]; 48h p.i., Fig. 2A, read-out: IC50 (E2A expression)): 4060 nM
- IC50 (HAdV-C5 wt [2]; 48h p.i., Fig. 2A, read-out: IC50 (capsid expression)): 2070 nM
- RC in number (replication centers) (HAdV-C5 wt [3]): significant reduction
- signal obtained after capsid staining (native gel assay) (HAdV-C5 wt [4]): significantly reduced
- capsid protein expression (HAdV-C5 wt [4]; denatured input lysates, right panel): reduced
- reduction of early viral DNA binding protein E2A expression (HAdV-C5 wt [5]; 1µM ATO, H1299, 5 FFU/cell, ATO at 2 h.p.i., 48 h.p.i.): 40%
- inhibition of late capsid protein expression (HAdV-C5 wt [5]; 2.0µM ATO, H1299, 5 FFU/cell, ATO at 2 h.p.i., 48 h.p.i.): ~80%
- reduction in cells expressing E2A (HAdV-C5 wt [5]; [11]): up to 40%
- reduction in cells expressing capsid (HAdV-C5 wt [5]; [11]): up to 80%
- E1B-55K viral protein (HAdV-C5 wt [6]): decrease
- E4orf6 viral protein (HAdV-C5 wt [6]): decrease
- expression of the early viral protein E2A (HAdV-C5 wt [6]): decrease
- late capsid and capsid associated proteins (HAdV-C5 wt [6]): decrease
- viral early and late protein synthesis (HAdV-C5 wt [6]; 48 h.p.i.): significantly impaired
- number of PML-NBs (PML-NBs): significantly decreases
- inhibition of Hexon viral mRNA expression (HAdV-C5 wt [7]): 60%
- GFP expression compared to the untreated control ([8]; 24h p.i.): Less than 50%
- GFP expression compared to the untreated control ([8]; 48h p.i.): Less than 50%
- IC50 ([8]; 24h p.i.): 6480 nM
- IC50 ([8]; 48h p.i.): 10200 nM
- cellular cytotoxicity of ATO (H1299 cells; H1299 infected with HAdV-C5 wt, ATO 0-10 µM, Fig. 2A): no clear effect
- cellular cytotoxicity of ATO (H1299 cells; H1299 infected with non-replicating eGFP vector, ATO 0-8µM, Fig. 2C): no clear effect
- cellular cytotoxicity of ATO (H1299 cells; H1299 infected with replication competent HAdV-GFP, Fig. 2B): no clear effect
- inhibition of adenoviral infection ([9]; 2µM ATO, 48h p.i.): more than 50%
- inhibition of adenoviral infection ([9]; 4µM ATO, 24h p.i.): up to 75%
- inhibition of adenoviral infection ([9]; 4µM ATO, 48h p.i.): more than 75%
- IC50 ([9]; 24h p.i.): 1610 nM
- IC50 ([9]; 48 h p.i.): 1180 nM

Substance: E2A K94/132/202R, untagged (pCMX3b-E2AK94/132/202R / pE2A-SCM, or expressed from HAdV E2A SCM mutant virus) (from UniProt P03265 1-529)
- reduction of E2A SUMOylation against HAdV wt infection [10]: 70%
